Measurements taken from US20070202079A1, “Therapeutic compositions and methods useful in modulating protein tyrosine phosphatases” (priority 2006, published 2007).

Legend:
[1] = test system: Jak2/Stat5 tyrosine phosphorylation in Baf3 cells; test: cellular protein tyrosine phosphorylation in Baf3 cells, Western blotting; assay type: cell-based, murine
Procedure: For induction of cellular protein phosphorylation by sodium stibogluconate or pervanadate, Baf3 cells were incubated in 0.1% FCS-RPMI 1640 medium at 37° C. for 16 hours. The cells were then washed twice in RPMI 1640 medium and incubated with sodium stibogluconate or pervanandate (0.1 mM) for various times prior to termination by lysing cells in cold lysis buffer (50 mM Tris, pH 7.4; 150 mM NaCl; 0.2 mM Na3VO4; 20 mm NaF; 1% Nonidet P-40; 2 mM PMSF; 20 μg/ml of Aprotinin and 1 mM of sodium molybdic acid). To determine the effect of sodium stibogluconate or potassium antimonyl tartrate on IL-3-induced Jak/Stat phosphorylation, Baf3 cells were deprived of the growth factor for 16 hours in 0.1% FCS RPMI 1640 medium and then incubated with or without sodium stibogluconate or potassium antimonyl tartrate for 10 minutes. IL-3 was next added to the cell suspension and incubated for various times. The Cells were then harvested and lysed in cold lysis buffer at 4° C. for 45 minutes. Total cell lysates (TCL) were separated in SDS-PAGE gels, blotted onto nitrocellulose membrane (Schleicher & Schuell), probed with specific antibodies and detected using an enhanced chemiluminescence kit (ECL, Amersham, Arlington Heights, Ill.).

NB4 cells = test: NB4 differentiation (NBT reduction, CD11b); assay type: cell-based, human; conditions: 6 days with drug, washed, 6 days without
Procedure: Differentiation of AML cell lines was assessed by their ability to produce superoxide as measured by reduction of NBT to formazan and by analysis of expression of CD11b surface marker by flow cytometry. For NBT reduction, each cell suspension was mixed with an equal volume of solution containing 1 mg/ml of NBT (Sigma) and 2.5 μg/ml of TPA for 30 minutes at 37° C. After incubation, cells containing the purple formazan deposits and cells devoid of NBT-reducing activity (white cells) in each sample were determined by counting 200 cells under microscope. Data is expressed as a percentage based on the following ratio: purple cells/purple+white cells. For analysis of cell surface antigens, cells were exposed to phycoerythrin (PE)-conjugated murine anti-human CD11b (DAKO Corp., Carpinteria, Calif.). Analysis of fluorescence was performed on a FACScan flow cytometer (Beckton Dickinson, Mountain View, Calif.).

DS cells = test: DS cell growth, MTT; assay type: cell-based, human; conditions: day 3; IFN-alpha 1,000 u/ml or sodium stibogluconate by itself
Procedure: (§1) For cell proliferation assays, cells were grown in 10% FCS culture medium containing various amounts of IFNs and/or sodium stibogluconate in 96 well plates and cultured at 37° C. for 3 or 6 days as indicated. The numbers of viable cells in proliferation assays were determined by MTT assays as described in Phatak et al., J. Immunol. 167, 3391 (2001).

WM35 = WM35 cell growth, MTT; assay type: cell-based, human
Procedure: as §1

WiT49-N1 = WiT49-N1 cell growth, MTT; assay type: cell-based, human; conditions: day 6
Procedure: as §1

[2] = test system: tumor-infiltrating and spleen immune cells (F4/80+, CD4+, CD8+); test: immunohistochemistry of Renca tumors and spleen; assay type: in vivo, Balb/c mice; conditions: mouse, in vivo
Procedure: Major internal organs and Renca tumors harvested from mice were fixed in 10% formalin or snap frozen in liquid nitrogen. H & E-stained tissue sections of the fixed samples were prepared and evaluated by microscopy as described previously (Yi, T., M. K. Pathak, D. J. Lindner, M. E. Ketterer, C. Farver, and E. C. Borden. 2002. Anticancer activity of sodium stibogluconate in synergy with IFNs. J Immunol 169:5978). Preparation of frozen tissue sections and immunohistochemistry were performed following established procedures (Joliat, M. J., P. A. Lang, B. L. Lyons, L. Burzenski, M. A. Lynes, T. Yi, J. P. Sundberg, and L. D. Shultz. 2002. Absence of CD5 dramatically reduces progression of pulmonary inflammatory lesions in SHP-1 protein-tyrosine phosphatase-deficient ‘viable motheaten’ mice. J Autoimmun 18:105). The antibodies used for immunohistochemistry were anti-CD4 (rat mAb, clone GK1.5, BD Biosciences, Franklin Lakes, N.J.), anti-CD8 (rat mAb, clone 53-6.7.5, BD Biosciences, Franklin Lakes, N.J.), anti-F4/80 (rat mAb, clone A3-1, Serotec, Oxford, UK) and anti-Asialo GM1 (rabbit polyclonal, Cedarlane, Hornby, Canada). […] Tissue sections of 2 mice/group were evaluated. The number of immune cells was semi-quantified based on the following scheme: […], 0-1 positive cells/40×field; +, 2-5 positive cells/40×field; ++, 6-10 positive cells/40×field, etc.

Flag-PRL-2 = molecular target: T1, Flag-PRL-2 (Homo sapiens, UniProt Q12974); test: immunocomplex PTPase assay, NIH3T3 Flag-PRL-2 transfectants; assay type: cell-based, mouse
T1 construct: expressed in transfected cells; host or cells: NIH3T3 (pBabepuro, puromycin-selected)
Procedure: Immunocomplex PTPase assays were performed to assess the effects of sodium stibogluconate on intracellular PTPases. Cells were untreated or treated with sodium stibogluconate for 5 minutes, washed with fresh medium and then lysed in cold lysis buffer (50 mM Tris, pH 7.4; 150 mM NaCl; 1% NP40; 2 mM PMSF; 20 μg/ml of Aprotinin). The lysates were incubated with an anti-Flag antibody in immunoprecipitation assays. The immunocomplexes were collected with protein G sepharose beads (Pharmacia) and washed in cold lysis buffer for 4 times. […] C. for 18 hrs. 100 μL of malachite green solution (UBI) was added to each reaction prior to measurement of OD660 to quantify the amounts of free phosphate cleaved by the PTPases from the peptide substrate (Pathak et al., J. Immunol. 167, 3391 (2001)). The remaining 10% contents of individual samples were analyzed by SDS-PAGE/Western blotting to quantify the relative amounts of the phosphatase proteins. […]
The effects of sodium stibogluconate on intracellular PTPases were assessed using NIH3T3 or WM9 transfectants. […]

T1 sequence (Q12974 whole entry): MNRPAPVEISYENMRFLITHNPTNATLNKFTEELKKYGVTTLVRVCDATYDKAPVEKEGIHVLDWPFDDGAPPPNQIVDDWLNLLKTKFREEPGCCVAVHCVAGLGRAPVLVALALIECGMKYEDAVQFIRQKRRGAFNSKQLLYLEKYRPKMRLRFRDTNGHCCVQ

In the case of O.O.O.O.O.O.O.O.O.O=C([O-])[C@@H]1[O][Sb]2([O-])([O][Sb]34([OH])[O][C@H]([C@H](O)CO)[C@H]([O]3)[C@H](C(=O)[O-])[O]4)[O][C@H]([C@H](O)CO)[C@@H]1[O]2.[Na+].[Na+].[Na+] [sodium stibogluconate], the “induction of cellular protein tyrosine phosphorylation” value ([1]; Baf3 deprived of IL-3, compared with pervanadate 0.1 mM) is reported as “modest and transient”, the “phosphotyrosine levels of Jak2 and Stat5 versus cells without drug” value ([1]; IL-3 stimulated, densitometry) is reported as “about twice” and the “Jak2/Stat5 tyrosine phosphorylation by drug alone” value ([1]; no IL-3, 16 hours at 37 °C) is reported as “failed to induce Jak2/Stat5 tyrosine phosphorylation”. For the same compound, the “reversal of NB4 differentiation after drug removal” value (NB4 cells) was “not reversed”, the DS cell growth (DS cells) was “modest activity” and the “sensitivity of WM35 cells” value (WM35) was “minimally affected”. For the same compound, the “WiT49-N1 growth inhibition activity with IFN-alpha” value (WiT49-N1) was “not enhanced by IFN-alpha”, the “numbers of tumor-infiltrating T cells or NK cells” value [2] was “little effect” and the “time required for full removal of effect on intracellular PRL-2” value (Flag-PRL-2; brief treatment) was “at least 24 hours”. For the same compound, the “PTPase activity of immunocomplexes from treated Flag-PRL-2 transfectants” value (Flag-PRL-2; cells treated 5 min) was “lack of PTPase activity”.
